Here are results for one compound from paper PMC10819485 (2024).

Molecules are shown by their SMILES.

For experiment [1], the system named is HEV1 (colorimetric form) (DNA, aptamer) AGCAGCTTATTGCTGAATTTTT
Description: AuNP aggregation colorimetry. The following applies: NaCl; A660/A520 ratio rises with E2, 0.2 to 1 μg/mL; room temperature.

In experiment [2] the test system is HEV2 (MST form) (DNA, aptamer) AGCAGATGAATCTGAATTTTT
Description: microscale thermophoresis. Particulars: NaCl 300 mM, MgCl2 5 mM (aptamer buffer); 20 mM Tris pH 7.6, 0.01% Tween 20; highest E2 1000 nM. On the technique in general: MST reads how a fluorescent partner responds to local heating, with and without ligand.

The test system of experiment [3] is HEV1 (electrode form) (DNA, aptamer) AGCAGCTTATTGCTGAATTTTT
Description: differential pulse voltammetry aptasensor. The following applies: peak current falls with log E2, from 5 pg/mL; immobilised aptamer.

Experiment [4] has as its system M70 (electrode form) (DNA, aptamer) GCTTCCAGCTTATTGAATTACACGCAGAGGGTAGCGGCTCTGCGCATTCAATTGCTGCGCGCTGAAGCGCGGAAGC
Briefly: differential pulse voltammetry aptasensor. The following applies: peak current falls with log E2, 5 pg/mL to 20 ng/mL; immobilised aptamer.

The subject of experiment [5] is M70 (colorimetric form) (DNA, aptamer) GCTTCCAGCTTATTGAATTACACGCAGAGGGTAGCGGCTCTGCGCATTCAATTGCTGCGCGCTGAAGCGCGGAAGC
Briefly: AuNP aggregation colorimetry. The following applies: NaCl; A660/A520 ratio rises with E2; room temperature.

In experiment [6] the test system is HEV1 (MST form) (DNA, aptamer) AGCAGCTTATTGCTGAATTTTT
Briefly: microscale thermophoresis. The following applies: NaCl 300 mM, MgCl2 5 mM (aptamer buffer); 20 mM Tris pH 7.6, 0.01% Tween 20; E2 up to 1000 nM; 30 min incubation; abstract 92 nM.

Take `C[C@]12CC[C@@H]3c4ccc(O)cc4CC[C@H]3[C@@H]1CC[C@@H]2O`: the binding entry in experiment [1] is recorded as “yes”; in experiment [2], “no”; in experiment [3] it was “yes”; in experiment [4] it was “yes”; in experiment [5], “yes”. For the same compound, in experiment [6], the KD (in general, the concentration at which binding is half-saturated) is listed as 92.76 ± 66.02 nM.
